Reference: patent publication US12428405B2, “Chalcone-based chemotherapeutic compound for triple negative breast cancer” (QATAR UNIVERSITY, priority 2019, dated 2025)
Values joined by “and” are separate entries in the source; they are usually repeats but may differ in a detail not shown here. Identical values can stand only once. “Also recorded” adds a separate entry of the source.

Columns and labels:
[1] = system: BAX/bcl2 expression in MCF-7 cell line; test: Western blot of BAX/bcl-2 expression; assay type: cell-based; settings: 48 h, 5 and 10 μM; vs DMSO and colchicine
Method: (§1) Proteins were quantified with the Pierce BCA Protein Assay Kit (Thermo Scientific, USA) following cell lysis. SDS-PAGE was prepared at a concentration of 10% for all studied proteins. All samples were loaded at 40 μg per 1.5 mm 15 wells comb. Running of stained samples was performed using two steps gel electrophoresis (60 Volts for 20 minutes followed by 120 Volts for 1 hour). Afterwards, gels were transferred into PVDF membrane at 100 Voltage for 1.5-2.0 hours using wet transfer. Following transfer, PVDF membranes were blocked with 5% skimmed milk and washed three times. Primary antibodies (Table 2.2) were prepared, then PVDF membrane were incubated with them overnight with gentle shaking at 4° C. Afterwards, membranes were washed three times and incubated with their respective secondary antibodies for 1-2 hours with gentle shaking at room temperature. Pierce™ ECL Western Blotting Substrate was used to detect proteins by chemiluminescence. Blots were imaged using the ibrightCL1000 imaging system.

[2] = system: BAX/bcl2 expression in MDA-MB-231 cell line; test: Western blot of BAX/bcl-2 expression; assay type: cell-based; settings: 48 h, 5 and 10 μM; vs DMSO and colchicine
Method: as §1

[3] = system: MDA-MB-468; test: PE Annexin V apoptosis assay (flow cytometry); assay type: cell-based
Method: PE Annexin V apoptosis Detection Kit (BD Pharmingen, USA) was used to quantify cell apoptosis in treated versus untreated MDA-MB-468 cells at 24 and 48 hours post treatment. Briefly, cells were seeded at a density of 300,000 cells/well in 6-well plates. Second day, media was replaced with fresh media and treatment was added. Cells were harvested following treatment and each group of cells was stained with PE Annexin V and 7-AAD Annexin V as per the protocol specified on the kit. Samples were then analyzed by Accuri C6 flow cytometer (BD Biosciences, USA). The percentages of cells (viable cells, apoptotic cells, necrotic cells and dead cells) were quantified in each of the four quadrants. Data and figures were processed using the FlowJo V10 software.

[4] = system: MDA-MB-231 xenografted nude mice; test: In vivo tumor growth, xenograft model
[5] = system: tubulin; test: Cell free tubulin polymerization assay; assay type: biochemical; settings: N=1×2, colchicine and paclitaxel as controls
Method: The effect of compound 14 on tubulin polymerization dynamics was assessed using the cell free Cytoskeleton tubulin polymerization assay kit, Version 8.3 (Cytoskeleton, Inc., USA). The experiment was conducted based on the manufacturer's recommendations. colchicine was used as a depolymerizing control while paclitaxel was used as a polymerizing control. Briefly, stock solutions of 10 μM of the compounds and controls were prepared in general tubulin buffer. Then, 10 μl of each solution was added in duplicates in half area 96-well plate prewarmed at 37° C. It was subsequently incubated at 37° C. for 2 minutes. Tubulin solution was prepared and 100 μl of it was added to each of the prewarmed wells of the compounds. The plate was immediately placed at a plate reader set up at kinetic modes and 37° C. temperature. Recording was conducted every minute for 60 minutes at 340 nm Absorbance.

[6] = system: MCF-7; test: MTT cell viability; assay type: cell-based; settings: for IC50: Homo sapiens, MCF7, 48 hours of treatment, Mean ± SEM (n = 3 × 3); for SI of HNME/MCF-7 (selective index): ratio of LD50 on HNME-E6/E7 to IC50 on MCF-7
Text: (§2) Breast cancer cell lines including MDA-MB-231, MDA-MB-468, MCF-7, BT-474 and SK-BR-3 were obtained from the American Type Tissue Culture (ATCC) and maintained in complete cell culture media Gibco® RPMI 1640 (Thermo Fisher Scientific, USA) supplemented with 10% fetal bovine serum (PAN-Biotech, Aidenbach, Bavaria, Germany) and 1% penicillin/streptomycin (1×) antibiotics (Thermo Fisher Scientific, USA). Human normal mammary epithelial cells immortalized by E6/E7 of HPV type 16 (HNME-E6/E7) were used to predict potential safety of the compounds (125, 126). They were maintained in Gibco® Keratinocyte-SFM (1×) media. All cells were incubated in 5% CO2 at 37° C. incubator. Cells were maintained by routine sub-culturing in T-75 and T25 filtered tissue culture flasks.
(§3) MDA-MB-231, MDA-MB-468, MCF-7, BT-474 and HNME-E6/E7 cells were seeded overnight in 96-well plates at a concentration of 8000-10,000/well depending on their pre-calculated cell density and were incubated overnight. At 24 hours, media was replaced with fresh one. The treatment wells included 6-8 different concentrations of the compounds ranging between 0.25 μM-160 μM. At 48 hours post treatment, 10 μL MTT solution was added to each well followed by 4 hours of incubation. Afterwards, media with MTT was removed from all wells and 50 μl DMSO was added to each well to dissolve the crystals. This was followed by 5 minutes incubation. Absorbance was recorded at a wavelength of 562 nm after 3 minutes of shaking using Infinite 200 PRO Microplate Reader (Tecan, Switzerland). Percentage of viable cells was calculated using the following formula: […]

[7] = system: MDA-MB-468; test: MTT cell viability; assay type: cell-based; settings: for IC50: Homo sapiens, MDA-MB-468, 48 hours of treatment, Mean ± SEM (n = 3 × 3); for SI of HNME/MDA-468 (selective index): ratio of LD50 on HNME-E6/E7 to IC50 on MDA-MB-468
Text: as §2, §3

[8] = system: MDA-MB-231; test: MTT cell viability; assay type: cell-based; settings: for IC50: Homo sapiens, MDA-MB-231, 48 hours of treatment, Mean ± SEM (n = 3 × 3); for SI of HNME/MDA-231 (selective index): ratio of LD50 on HNME-E6/E7 to IC50 on MDA-MB-231
Text: as §2, §3

[9] = system: HNME-E6/E7; test: MTT cell viability on immortalized normal mammary epithelial cells; assay type: cell-based, human; settings: normal cell line; 48 hours of treatment; Mean ± SEM (n = 3 × 3)
Text: as §2
as §3, with “At 48 hours post treatment, 10 μL MTT solution was added to each well followed by 4 hours of incubation. Afterwards, media with MTT was removed from all wells and 50 μl DMSO was added to each well to dissolve the crystals. This was followed by 5 minutes incubation.” left out

[10] = system: MCF-7; test: Radius cell migration assay; assay type: cell-based; settings: Homo sapiens, MCF7; 24 hours of treatment; 5 concentrations; three independent experiments; read-out: Migratory IC50 MCF-7
Method: (§4) For MCF-7 and SK-BR-3 cell lines, migration testing was performed using the Radius™ Cell Migration Assay Kit (Cell Biolabs, Inc., USA) and migration was quantified based on the change in wound area.

[11] = system: SK-BR-3; test: Radius cell migration assay; assay type: cell-based; settings: Homo sapiens, 24 hours of treatment, 5 concentrations, three independent experiments, read-out: Migratory IC50 SK-BR-3
Method: as §4

[12] = Two-week safety and tolerability of the dose before inoculation; settings: 10 mg/kg intraperitoneally for two weeks; n=5
[13] = system: TNBC (MDA-MB-231 and MDA-MB-231) and estrogen positive (MCF-7 and BT-474) cell lines; test: MTT cell viability, breast cancer cell line panel (summary statements); assay type: cell-based
Text: as §2
as §3, with “At 48 hours post treatment, 10 μL MTT solution was added to each well followed by 4 hours of incubation. Afterwards, media with MTT was removed from all wells and 50 μl DMSO was added to each well to dissolve the crystals. This was followed by 5 minutes incubation.” left out

[14] = 10 mg/kg i.p., three times per week, 45 days

Structure (SMILES): COc1cccc(C(=O)/C=C/c2ccc(N(CCCl)CCCl)cc2)c1 [Compound 14, (E)-3-(4-(Bis(2-chloroethyl)amino)phenyl)-1-(3-methoxyphenyl) prop-2-en-1-one]
- BAX / bcl-2 protein expression, BAX/bcl-2 ratio [1]: upregulation of BAX and downregulation of bcl-2; also recorded: positive increase in BAX/bcl-2 ratio
- BAX / bcl-2 protein expression, BAX/bcl-2 ratio [2]: upregulation of BAX and downregulation of bcl-2; also recorded: positive increase in BAX/bcl-2 ratio
- early and late apoptosis (in words) ([3]; 24 and 48 hours): time dependent
- rate of apoptosis ([3]; 48 hours, N=1): 28.00%
- day on which the tumor in the treated group started to grow ([4]; 10 mg/kg i.p., three times per week): 24 days
- clinical toxicity to treated animals (in words) [4, 14]: no notable clinical toxicity
- mice health and weight (in words) [4, 14]: did not affect the mice health nor it had induced any changes to the mice weight
- inhibition in tumor growth as compared to the placebo ([4]; 10 mg/kg i.p., three times per week, day 45, n=5): 46.41±0.71% and 46.41%
- survival rate of the mice ([4]; during the 45 days): 100%
- tumor volume ([4]; treated mice, day 45, n=5): 1350±1350 mm^3
- tumor weight ([4]; treated mice, day 45, n=5): 0.88±0.71 gm
- effect on tubulin polymerization (in words) [5]: inhibited with an effect comparable to colchicine; also recorded: comparable to tubulin desterilizing agent, colchicine
- IC50 [6]: 3.96 ± 1.87 µM
- SI of HNME/MCF-7 (selective index) [6]: 5.22
- IC50 [7]: 8.73 ± 0.67 µM
- SI of HNME/MDA-468 (selective index) [7]: 2.36
- IC50 [8]: 6.3 ± 0.78 µM
- SI of HNME/MDA-231 (selective index) [8]: 3.2
- LD50 HNME-E6/E7 [9]: 20.67 ± 1.50 µM
- IC50 [10]: 2.44 ± 0.39 µM
- IC50 [11]: 2.79 ± 0.45 µM
- clinical observations, tolerability (in words) [12]: did not show any changes in the mice food intake, weights, or shape
- IC50 ([13]; TNBC and estrogen positive cell lines, read-out: anti-proliferative IC50 values, range over cell lines): 3.94 to 9.22 µM

Structure (SMILES): CS(=O)(=O)c1ccc(C(=O)/C=C/c2ccc(N(CCCl)CCCl)cc2)cc1 [Compound 13, (E)-3-(4-(Bis(2-chloroethyl)amino)phenyl)-1-(4-(methylsulfonyl)phenyl) prop-2-en-1-one]
- IC50 [6]: 8.95 ± 1.46 µM
- SI of HNME/MCF-7 (selective index) [6]: 3.61
- IC50 [7]: 9.29 ± 0.68 µM
- SI of HNME/MDA-468 (selective index) [7]: 3.48
- IC50 [8]: 9.67 ± 0.68 µM
- SI of HNME/MDA-231 (selective index) [8]: 3.34
- LD50 HNME-E6/E7 [9]: 32.32 ± 3.93 µM
- selectivity, approximately similar between different breast cancer cell lines ([13]; versus HNME-E6/E7 normal cells): ~3
